Drawing on patent publication US20080026996A1, “Selective Vpac2 Receptor Reptide Agonists” (ELI LILLY AND COMPANY, priority 2004, published 2008), this text covers EC50 and IC50 for four molecules.

Where a SMILES comes first, the peptide text is derived from it. The star is where a group is joined. Hexanoyl = CCCCCC(=O)*

In experiment [1] the target is T1, human VPAC2 (Homo sapiens, UniProt P41587).
T1 construct: expressed in transfected cells
T1 sequence (P41587 24-438): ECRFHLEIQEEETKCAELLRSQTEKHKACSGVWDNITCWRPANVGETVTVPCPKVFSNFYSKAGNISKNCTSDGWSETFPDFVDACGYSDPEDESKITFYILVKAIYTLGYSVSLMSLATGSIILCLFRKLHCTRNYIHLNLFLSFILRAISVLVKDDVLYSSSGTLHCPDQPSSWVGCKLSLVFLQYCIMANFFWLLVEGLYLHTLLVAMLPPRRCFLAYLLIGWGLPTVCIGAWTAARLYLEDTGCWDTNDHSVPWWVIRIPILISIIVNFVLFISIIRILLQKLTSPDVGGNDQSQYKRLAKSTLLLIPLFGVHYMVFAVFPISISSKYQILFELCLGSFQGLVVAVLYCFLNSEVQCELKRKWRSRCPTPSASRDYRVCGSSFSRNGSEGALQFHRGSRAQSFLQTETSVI
The experiment can be described thus: Alpha screen cAMP in vitro potency, human VPAC2 receptor. Type of experiment: cell-based. The following applies: cAMP generation; single result from two analyses performed in a single run; read-out: Human VPAC2 Receptor: Alpha Screen EC50. The procedure: Alpha screen: Cells are washed in the culture flask once with PBS. Then, the cells are rinsed with enzyme free dissociation buffer. The dissociated cells are removed. The cells are then spun down and washed in stimulation buffer. For each data point, 50,000 cells suspended in stimulation buffer are used. To this buffer, Alpha screen acceptor beads are added along with the stimuli. This mixture is incubated for 60 minutes. Lysis buffer and Alpha screen donor beads are added and are incubated for 60 to 120 minutes. The Alpha screen signal (indicative of intracellular cAMP levels) is read in a suitable instrument (e.g. AlphaQuest from Perkin-Elmer). Steps including Alpha screen donor and acceptor beads are performed in reduced light.

In experiment [2] the target is T1, human VPAC2. The experiment can be described thus: Filter binding assay, membranes of stable VPAC2 cell line, 125I-labeled VIP tracer (Table 2). As to conditions: read-out: Human VPAC2 Receptor Binding. Here is the method: (§1) For this assay, the solutions and equipment include:
(§2) Presoak solution: 0.5% Polyethyleneamine in Aqua dest.
(§3) Buffer for flushing filter plates: 25 mM HEPES pH 7.4
(§4) Blocking buffer: 25 mM HEPES pH 7.4; 0.2% protease free BSA
(§5) Assay buffer: 25 mM HEPES pH 7.4; 0.5% protease free BSA
(§6) Dilution and assay plate: PS-Microplate, U form
(§7) Filtration Plate Multiscreen FB Opaque Plate; […] Type B Glasfiber filter
(§8) In order to prepare the filter plates, aspirate the presoak solution by vacuum filtration. Flush the plates twice with 200 μL flush buffer. Add 200 μL blocking buffer to the filter plate. The filter plate is then incubated […] for 1 hour at room temperature.
(§9) Fill the assay plate with 25 μL assay buffer, 25 μL membranes (2.5 μg) suspended in assay buffer, 25 μL compound (agonist) in assay buffer, and 25 μL tracer (about 40000 cpm) in assay buffer. Incubate the filled plate for 1 hour with shaking.
(§10) Conduct the transfer from assay plate to filter plate. Aspirate the blocking buffer by vacuum filtration and wash two times with flush buffer. Transfer 90 μL from the assay plate to the filter plate. Aspirate the 90 μL transferred from assay plate and wash three times with 200 μL flush buffer. Remove the plastic support. Dry for 1 hour at 60° C. Add 30 μL Microscint. Perform the count.

The next experiment concerns the target T2, human VPAC1 (Homo sapiens, UniProt P32241).
T2 sequence (P32241 31-457): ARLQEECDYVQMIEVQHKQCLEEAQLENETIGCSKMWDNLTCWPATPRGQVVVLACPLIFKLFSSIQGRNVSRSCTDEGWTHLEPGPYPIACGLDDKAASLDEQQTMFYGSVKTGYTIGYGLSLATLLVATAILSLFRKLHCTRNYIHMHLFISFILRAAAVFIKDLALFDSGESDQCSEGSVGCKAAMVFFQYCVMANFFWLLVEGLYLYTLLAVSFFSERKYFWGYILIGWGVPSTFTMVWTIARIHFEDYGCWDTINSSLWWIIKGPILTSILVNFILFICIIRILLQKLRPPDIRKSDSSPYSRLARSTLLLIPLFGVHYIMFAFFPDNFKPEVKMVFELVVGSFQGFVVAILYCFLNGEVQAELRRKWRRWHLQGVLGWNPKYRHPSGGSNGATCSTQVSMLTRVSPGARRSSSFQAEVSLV
Description: Filter binding assay, membranes of cells transiently transfected with human VPAC1, 125I-labeled VIP tracer (Table 2). Details: expressed in transfected cells. The following applies: read-out: Human VPAC1 Receptor Binding. Here is the method:
as §1, §2, §3, §4, §5, §6, §7, §8, §9, §10

A further experiment has as its target T3, human PAC1 (Homo sapiens, UniProt P41586).
T3 sequence (P41586 21-468): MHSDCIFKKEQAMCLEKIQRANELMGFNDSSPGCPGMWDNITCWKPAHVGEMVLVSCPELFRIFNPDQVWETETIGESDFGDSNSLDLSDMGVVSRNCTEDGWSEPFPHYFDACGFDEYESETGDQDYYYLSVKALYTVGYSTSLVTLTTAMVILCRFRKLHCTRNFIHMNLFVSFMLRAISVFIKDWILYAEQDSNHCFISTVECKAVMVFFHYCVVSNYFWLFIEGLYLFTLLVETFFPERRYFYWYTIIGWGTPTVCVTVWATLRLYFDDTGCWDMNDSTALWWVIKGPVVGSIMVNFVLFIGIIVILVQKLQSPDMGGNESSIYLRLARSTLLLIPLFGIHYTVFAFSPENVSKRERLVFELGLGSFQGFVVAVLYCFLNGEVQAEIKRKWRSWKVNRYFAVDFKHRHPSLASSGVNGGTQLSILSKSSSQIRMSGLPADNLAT
Description: Filter binding assay, membranes of cells transiently transfected with human PAC1, 125I-labeled PACAP-27 tracer (Table 2). Details: expressed in transfected cells. As to conditions: read-out: Human PAC1 Receptor Binding. Here is the method:
as §1, §2, §3, §4, §5, §6, §7, §8, §9, §10

Turning to `CC[C@H](C)[C@H](NC(=O)[C@H](CO)NC(=O)[C@H](CCC(N)=O)NC(=O)[C@H](CC(C)C)NC(=O)[C@H](Cc1ccc(O)cc1)NC(=O)[C@H](CCCCN)NC(=O)[C@H](CCCCN)NC(=O)[C@H](C)NC(=O)[C@H](C)NC(=O)[C@@H](NC(=O)[C@H](CCC(N)=O)NC(=O)[C@H](CCCCN)NC(=O)[C@H](CCCNC(=N)N)NC(=O)[C@H](CC(C)C)NC(=O)[C@H](CCCNC(=N)N)NC(=O)[C@@H](NC(=O)[C@H](Cc1ccc(O)cc1)NC(=O)[C@H](CCC(N)=O)NC(=O)[C@H](CC(=O)O)NC(=O)[C@@H](NC(=O)[C@H](Cc1ccccc1)NC(=O)[C@@H](NC(=O)[C@H](C)NC(=O)[C@H](CC(=O)O)NC(=O)[C@H](CO)NC(=O)[C@H](Cc1c[nH]cn1)NC(=O)[C@@H](N)CCSC)C(C)C)[C@@H](C)O)[C@@H](C)O)C(C)C)C(=O)N[C@@H](CCCCN)C(=O)N[C@@H](CCC(N)=O)C(=O)N[C@@H](CCCCN)C(=O)N[C@@H](CCCNC(=N)N)C(=O)N[C@@H](Cc1ccc(O)cc1)C(=O)NCC(=O)NCC(=O)N1CCC[C@H]1C(=O)N[C@@H](CO)C(=O)N[C@@H](CO)C(=O)NCC(=O)N[C@@H](C)C(=O)N1CCC[C@H]1C(=O)N1CCC[C@H]1C(=O)N1CCC[C@H]1C(=O)N[C@@H](CO)C(=O)O` [Agonist P100], on human VPAC2 [1], the EC50 (commonly the concentration at which the effect is half-maximal) is 0.28 nM. Moreover, the IC50 at human VPAC2 [2] was determined as 0.4 nM; on human VPAC1 it was 321 nM; at human PAC1, 187 nM.

As for `CCCCCC(=O)N[C@@H](Cc1c[nH]cn1)C(=O)N[C@@H](CO)C(=O)N[C@@H](CC(=O)O)C(=O)N[C@@H](C)C(=O)N[C@H](C(=O)N[C@@H](Cc1ccccc1)C(=O)N[C@H](C(=O)N[C@@H](CC(=O)O)C(=O)N[C@@H](CC(N)=O)C(=O)N[C@@H](Cc1ccc(O)cc1)C(=O)N[C@H](C(=O)N[C@@H](CCCNC(=N)N)C(=O)N[C@@H](CC(C)C)C(=O)N[C@@H](CCCNC(=N)N)C(=O)N[C@@H](CCCCN)C(=O)N[C@@H](CCC(N)=O)C(=O)N[C@@H](CCSC)C(=O)N[C@@H](C)C(=O)N[C@@H](C)C(=O)N[C@@H](CCC(N)=O)C(=O)N[C@@H](CCCCN)C(=O)N[C@@H](Cc1ccc(O)cc1)C(=O)N[C@@H](CC(C)C)C(=O)N[C@@H](CC(N)=O)C(=O)N[C@@H](CCC(N)=O)C(=O)N[C@@H](CC(C)C)C(=O)N[C@@H](CCCCN)C(=O)N[C@@H](CCCCN)C(=O)NCC(=O)NCC(=O)N1CCC[C@H]1C(=O)N[C@@H](CO)C(=O)N[C@@H](CO)C(=O)NCC(=O)N[C@@H](C)C(=O)N1CCC[C@H]1C(=O)N1CCC[C@H]1C(=O)N1CCC[C@H]1C(=O)N[C@@H](CO)C(=O)O)[C@@H](C)O)[C@@H](C)O)C(C)C` [Agonist P143] (Hexanoyl-HSDAVFTDNYTRLRKQMAAQKYLNQLKKGGPSSGAPPPS-OH; C-terminus assumed), at human VPAC2 [1], the EC50 came to 0.1 nM. Further, the IC50 came out at 0.5 nM at human VPAC2 [2], 605 nM on human VPAC1 and 1080 nM at human PAC1.

Turning to `CCCCCC(=O)N[C@@H](Cc1c[nH]cn1)C(=O)N[C@@H](CO)C(=O)N[C@@H](CC(=O)O)C(=O)N[C@@H](C)C(=O)N[C@H](C(=O)N[C@@H](Cc1ccccc1)C(=O)N[C@H](C(=O)N[C@@H](CC(=O)O)C(=O)N[C@@H](CC(N)=O)C(=O)N[C@@H](Cc1ccc(O)cc1)C(=O)N[C@H](C(=O)N[C@@H](CCCNC(=N)N)C(=O)N[C@@H](CC(C)C)C(=O)N[C@@H](CCCNC(=N)N)C(=O)N[C@@H](CCCCN)C(=O)N[C@@H](CCC(N)=O)C(=O)N[C@H](C(=O)N[C@@H](C)C(=O)N[C@@H](C)C(=O)N[C@@H](CCC(N)=O)C(=O)N[C@@H](CCCCN)C(=O)N[C@@H](Cc1ccc(O)cc1)C(=O)N[C@@H](CC(C)C)C(=O)N[C@@H](CC(N)=O)C(=O)N[C@@H](CCC(N)=O)C(=O)N[C@@H](CC(C)C)C(=O)N[C@@H](CCCCN)C(=O)N[C@@H](CCCCN)C(=O)NCC(=O)NCC(=O)N1CCC[C@H]1C(=O)N[C@@H](CO)C(=O)N[C@@H](CO)C(=O)NCC(=O)N[C@@H](C)C(=O)N1CCC[C@H]1C(=O)N1CCC[C@H]1C(=O)N1CCC[C@H]1C(=O)N[C@@H](CO)C(=O)O)C(C)C)[C@@H](C)O)[C@@H](C)O)C(C)C` [Agonist P144] (Hexanoyl-HSDAVFTDNYTRLRKQVAAQKYLNQLKKGGPSSGAPPPS-OH; C-terminus assumed), the EC50 at human VPAC2 [1] worked out at 0.32 nM. For the same molecule, the IC50 at human VPAC2 [2] was found to be 0.57 nM; on human VPAC1 it was 4.43 nM; at human PAC1, 1180 nM.

In the case of `CCCCCC(=O)N[C@@H](Cc1c[nH]cn1)C(=O)N[C@@H](CO)C(=O)N[C@@H](CC(=O)O)C(=O)N[C@@H](C)C(=O)N[C@H](C(=O)N[C@@H](Cc1ccccc1)C(=O)N[C@H](C(=O)N[C@@H](CC(=O)O)C(=O)N[C@@H](CC(N)=O)C(=O)N[C@@H](Cc1ccc(O)cc1)C(=O)N[C@H](C(=O)N[C@@H](CCCNC(=N)N)C(=O)N[C@@H](CC(C)C)C(=O)N[C@@H](CCCNC(=N)N)C(=O)N[C@@H](CCCCN)C(=O)N[C@@H](CCC(N)=O)C(=O)N[C@H](C(=O)N[C@@H](C)C(=O)N[C@@H](C)C(=O)N[C@@H](CCCCN)C(=O)N[C@@H](CCCCN)C(=O)N[C@@H](Cc1ccc(O)cc1)C(=O)N[C@@H](CC(C)C)C(=O)N[C@@H](CCC(N)=O)C(=O)N[C@@H](CO)C(=O)N[C@H](C(=O)N[C@@H](CCCCN)C(=O)N[C@@H](CC(N)=O)C(=O)NCC(=O)NCC(=O)N1CCC[C@H]1C(=O)N[C@@H](CO)C(=O)N[C@@H](CO)C(=O)NCC(=O)N[C@@H](C)C(=O)N1CCC[C@H]1C(=O)N1CCC[C@H]1C(=O)N1CCC[C@H]1C(=O)N[C@@H](CO)C(=O)O)[C@@H](C)CC)C(C)C)[C@@H](C)O)[C@@H](C)O)C(C)C` [Agonist P154] (Hexanoyl-HSDAVFTDNYTRLRKQVAAKKYLQSIKNGGPSSGAPPPS-OH; C-terminus assumed), on human VPAC2 [1], the EC50 came out at 0.18 nM. Further, the IC50 on human VPAC2 [2] was found to be 0.31 nM; at human VPAC1, 141 nM; on human PAC1, 1960 nM.
